Experimental data as given in patent US5438060A, “Method of reducing elevated intraocular pressure” (priority 1994, dated 1995).
Counter-ions that a name gives are not always drawn. Like-named read-outs stand apart in the source and are kept apart here.

Key:
intraocular pressure = assay: Experiment 1: ocular hypotensive effect of eye drops in rabbits (applanation pneumatonograph); format: in vivo, Male Japanese White rabbits; conditions: for Difference in IOP between the control and test eyes: 50 μl
Procedure: The ocular hypotensive effect of the eye drops of this invention was investigated in rabbits. The same experiment was also conducted using a representative β-adrenergic blocking agent, and its ocular hypotensive effect was compared with that of eye drops of this invention. Methods: […] […] Male Japanese White rabbits (body weight: ca. 2 kg) with normal intraocular pressure were used in the experiment. […] For each solution, five rabbits were used. After anesthesia of the corneal surface by instillating 5 μl of 0.4%. oxybuprocaine hydrochloride, the intraocular pressure was measured using an applanation pneumatonograph (Alcon) before and after the instillation of the test solution and control solution. Measurement of intraocular pressure after the instillation was conducted with one-hour intervals until six hours post-instillation.

[1] = mice, cited from earlier work
rabbit eyes = assay: Experiment 2: eye irritation test (modified Draize test); format: in vivo, Male Japanese White rabbits
[2] = 0.5% eye drops, before instillation

SMILES: OCCN(CCO)c1nc(N2CCCCC2)c2nc(N(CCO)CCO)nc(N3CCCCC3)c2n1 [Compound (1), dipyridamole]
- Difference in IOP between the control and test eyes (intraocular pressure; 0.00005% (free base), 1 hr): -0.60 mmHg
- Difference in IOP between the control and test eyes (intraocular pressure; 0.00005% (free base), 2 hr): -0.50 mmHg
- Difference in IOP between the control and test eyes (intraocular pressure; 0.00005% (free base), 4 hr): -0.20 mmHg
- Difference in IOP between the control and test eyes (intraocular pressure; 0.00005% (free base), 6 hr): -0.10 mmHg
- time of maximal IOP reduction after instillation (intraocular pressure; 0.00005% eye drops): one
- Difference in IOP between the control and test eyes (intraocular pressure; 0.0001% (free base), 1 hr): -1.30 mmHg
- Difference in IOP between the control and test eyes (intraocular pressure; 0.0001% (free base), 2 hr): -0.95 mmHg
- Difference in IOP between the control and test eyes (intraocular pressure; 0.0001% (free base), 4 hr): -0.30 mmHg
- Difference in IOP between the control and test eyes (intraocular pressure; 0.0001% (free base), 6 hr): -0.20 mmHg
- time of maximal IOP reduction after instillation (intraocular pressure; 0.0001% eye drops): one
- ocular hypotensive effect remained unchanged after instillation (intraocular pressure; 0.0005% eye drops): 2.0 h
- Difference in IOP between the control and test eyes (intraocular pressure; 0.001% (free base), 1 hr): -2.00 mmHg
- Difference in IOP between the control and test eyes (intraocular pressure; 0.001% (free base), 2 hr): -1.56 mmHg
- Difference in IOP between the control and test eyes (intraocular pressure; 0.001% (free base), 4 hr): -1.00 mmHg
- Difference in IOP between the control and test eyes (intraocular pressure; 0.001% (free base), 6 hr): -0.75 mmHg
- time of maximal IOP reduction after instillation (intraocular pressure; 0.001% eye drops): one
- Difference in IOP between the control and test eyes (intraocular pressure; 0.01% (free base), 1 hr): -3.44 mmHg
- Difference in IOP between the control and test eyes (intraocular pressure; 0.01% (free base), 2 hr): -2.25 mmHg
- Difference in IOP between the control and test eyes (intraocular pressure; 0.01% (free base), 4 hr): -1.31 mmHg
- Difference in IOP between the control and test eyes (intraocular pressure; 0.01% (free base), 6 hr): -1.00 mmHg
- ocular hypotensive effect remained unchanged after instillation (intraocular pressure; 0.01% eye drops): six
- time of maximal IOP reduction after instillation (intraocular pressure; 0.01% eye drops): one
- Difference in IOP between the control and test eyes (intraocular pressure; 0.1% (free base), 1 hr): -4.50 mmHg
- Difference in IOP between the control and test eyes (intraocular pressure; 0.1% (free base), 2 hr): -3.05 mmHg
- Difference in IOP between the control and test eyes (intraocular pressure; 0.1% (free base), 4 hr): -2.40 mmHg
- Difference in IOP between the control and test eyes (intraocular pressure; 0.1% (free base), 6 hr): -1.00 mmHg
- average difference of the IOP from the control eye drops (intraocular pressure; 0.1% eye drops): 4.5 mmHg
- ocular hypotensive effect retained after instillation (intraocular pressure; 0.1% eye drops): six
- time of maximal IOP reduction after instillation (intraocular pressure; 0.1% eye drops): one
- Difference in IOP between the control and test eyes (intraocular pressure; 0.5% (free base), 1 hr): -3.94 mmHg
- Difference in IOP between the control and test eyes (intraocular pressure; 0.5% (free base), 2 hr): -4.40 mmHg
- Difference in IOP between the control and test eyes (intraocular pressure; 0.5% (free base), 4 hr): -3.10 mmHg
- Difference in IOP between the control and test eyes (intraocular pressure; 0.5% (free base), 6 hr): -1.60 mmHg
- ocular hypotensive effect remained unchanged after instillation (intraocular pressure; 0.5% eye drops): six
- time of maximal IOP reduction after instillation (intraocular pressure; 0.5% eye drops): two
- LD50 ([1]; intravenous injection): 150 mg/kg
- LD50 ([1]; subcutaneous administration): 2700 mg/kg
- score for the tunica conjunctiva bulbi versus control solution (rabbit eyes; 0.5% eye drops): slightly higher than that for the control solution
- Conjunctivae: Chemosis (average score) (rabbit eyes; 0.5% eye drops, 0.5 hours): 0
- Conjunctivae: Condition of haw (average score) (rabbit eyes; 0.5% eye drops, 0.5 hours): 0.6
- Conjunctivae: Discharge (average score) (rabbit eyes; 0.5% eye drops, 0.5 hours): 0
- Conjunctivae: Redness of tunica conjunctivae bulbi (average score) (rabbit eyes; 0.5% eye drops, 0.5 hours): 0.9
- Conjunctivae: Redness of tunica conjunctivae palpebrarum (average score) (rabbit eyes; 0.5% eye drops, 0.5 hours): 1.5
- Cornea: Area of cornea involved (average score) (rabbit eyes; 0.5% eye drops, 0.5 hours): 0
- Cornea: Opacity degree of density (average score) (rabbit eyes; 0.5% eye drops, 0.5 hours): 0
- Iris: values (average score) (rabbit eyes; 0.5% eye drops, 0.5 hours): 0.5
- congestion in the iris (rabbit eyes; 0.5% eye drops, 0.5 hours after instillation): slight congestion
- Conjunctivae: Chemosis (average score) (rabbit eyes; 0.5% eye drops, 1 hour): 0
- Conjunctivae: Condition of haw (average score) (rabbit eyes; 0.5% eye drops, 1 hour): 0.5
- Conjunctivae: Discharge (average score) (rabbit eyes; 0.5% eye drops, 1 hour): 0
- Conjunctivae: Redness of tunica conjunctivae bulbi (average score) (rabbit eyes; 0.5% eye drops, 1 hour): 1.1
- Conjunctivae: Redness of tunica conjunctivae palpebrarum (average score) (rabbit eyes; 0.5% eye drops, 1 hour): 1.8
- Cornea: Area of cornea involved (average score) (rabbit eyes; 0.5% eye drops, 1 hour): 0
- Cornea: Opacity degree of density (average score) (rabbit eyes; 0.5% eye drops, 1 hour): 0
- Iris: values (average score) (rabbit eyes; 0.5% eye drops, 1 hour): 1.0
- Conjunctivae: Chemosis (average score) (rabbit eyes; 0.5% eye drops, 2 hours): 0
- Conjunctivae: Condition of haw (average score) (rabbit eyes; 0.5% eye drops, 2 hours): 0.5
- Conjunctivae: Discharge (average score) (rabbit eyes; 0.5% eye drops, 2 hours): 0
- Conjunctivae: Redness of tunica conjunctivae bulbi (average score) (rabbit eyes; 0.5% eye drops, 2 hours): 0.9
- Conjunctivae: Redness of tunica conjunctivae palpebrarum (average score) (rabbit eyes; 0.5% eye drops, 2 hours): 1.8
- Cornea: Area of cornea involved (average score) (rabbit eyes; 0.5% eye drops, 2 hours): 0
- Cornea: Opacity degree of density (average score) (rabbit eyes; 0.5% eye drops, 2 hours): 0
- Iris: values (average score) (rabbit eyes; 0.5% eye drops, 2 hours): 0.8
- Conjunctivae: Chemosis (average score) (rabbit eyes; 0.5% eye drops, 3 hours): 0
- Conjunctivae: Condition of haw (average score) (rabbit eyes; 0.5% eye drops, 3 hours): 0.5
- Conjunctivae: Discharge (average score) (rabbit eyes; 0.5% eye drops, 3 hours): 0
- Conjunctivae: Redness of tunica conjunctivae bulbi (average score) (rabbit eyes; 0.5% eye drops, 3 hours): 0.5
- Conjunctivae: Redness of tunica conjunctivae palpebrarum (average score) (rabbit eyes; 0.5% eye drops, 3 hours): 1.3
- Cornea: Area of cornea involved (average score) (rabbit eyes; 0.5% eye drops, 3 hours): 0
- Cornea: Opacity degree of density (average score) (rabbit eyes; 0.5% eye drops, 3 hours): 0
- Iris: values (average score) (rabbit eyes; 0.5% eye drops, 3 hours): 0.5
- Conjunctivae: Chemosis (average score) (rabbit eyes; 0.5% eye drops, 6 hours): 0
- Conjunctivae: Condition of haw (average score) (rabbit eyes; 0.5% eye drops, 6 hours): 0.5
- Conjunctivae: Discharge (average score) (rabbit eyes; 0.5% eye drops, 6 hours): 0
- Conjunctivae: Redness of tunica conjunctivae bulbi (average score) (rabbit eyes; 0.5% eye drops, 6 hours): 0.1
- Conjunctivae: Redness of tunica conjunctivae palpebrarum (average score) (rabbit eyes; 0.5% eye drops, 6 hours): 0.8
- Cornea: Area of cornea involved (average score) (rabbit eyes; 0.5% eye drops, 6 hours): 0
- Cornea: Opacity degree of density (average score) (rabbit eyes; 0.5% eye drops, 6 hours): 0
- Iris: values (average score) (rabbit eyes; 0.5% eye drops, 6 hours): 0
- congestion in the iris (rabbit eyes; 0.5% eye drops, after 6 hours): disappeared
- Conjunctivae: Chemosis (average score) (rabbit eyes; [2]): 0
- Conjunctivae: Condition of haw (average score) (rabbit eyes; [2]): 0.4
- Conjunctivae: Discharge (average score) (rabbit eyes; [2]): 0
- Conjunctivae: Redness of tunica conjunctivae bulbi (average score) (rabbit eyes; [2]): 0.1
- Conjunctivae: Redness of tunica conjunctivae palpebrarum (average score) (rabbit eyes; [2]): 0.8
- Cornea: Area of cornea involved (average score) (rabbit eyes; [2]): 0
- Cornea: Opacity degree of density (average score) (rabbit eyes; [2]): 0
- Iris: values (average score) (rabbit eyes; [2]): 0
- other irritation items, test solution versus control solution (rabbit eyes; 0.5% eye drops, irrespective of time): no difference
- irritation to rabbit eyes (overall) (rabbit eyes; eye drops of the present invention): negligible irritation

SMILES: CC(C)(C)NC[C@H](O)COc1nsnc1N1CCOCC1 [Timolol maleate, timolol maleate]
- Difference in IOP between the control and test eyes (intraocular pressure; 0.5% (free base), 1 hr): -0.80 mmHg
- Difference in IOP between the control and test eyes (intraocular pressure; 0.5% (free base), 2 hr): -0.80 mmHg
- Difference in IOP between the control and test eyes (intraocular pressure; 0.5% (free base), 4 hr): -0.25 mmHg
- Difference in IOP between the control and test eyes (intraocular pressure; 0.5% (free base), 6 hr): -0.10 mmHg
- IOP reduction (intraocular pressure; 0.5% eye drops, one hour after instillation): 0.8 mmHg
- IOP reduction (intraocular pressure; 0.5% eye drops, two hours after instillation): 0.8 mmHg
- degree of the IOP reduction compared with the 0.0001% eye drops of the invention (intraocular pressure; 0.5% timolol eye drops): significantly less
